Measured values reported in the NIST ThermoML archive (doi:10.1016/j.tca.2011.02.027).

How the values were obtained:
[1] = molar heat capacity at constant pressure; details: 101.33 kPa, Liquid, Large sample (1 g) DSC
[2] = Crystal; DTA
[3] = molar heat capacity at constant pressure; xn = mol fraction of the nth substance listed; details: 101.3 kPa, Liquid, Large sample (1 g) DSC

CCCCn1cc[n+](C)c1.[Br-] [1-butyl-3-methylimidazolium bromide]
[1]
Details	molar heat capacity at constant pressure [J/K/mol]
353.2 K	334.8
358.2 K	338.1
363.2 K	341.1
368.2 K	344.6
373.2 K	347.5
378.2 K	350.6
383.2 K	354.1
388.2 K	356.7
393.2 K	359.9
398.2 K	363.4
403.2 K	366.4

Details	Normal melting temperature [°C]
[2]	73.00

CCCCn1cc[n+](C)c1C.F[P-](F)(F)(F)(F)F [1-butyl-2,3-dimethylimidazolium hexafluorophosphate]
[1]
Details	molar heat capacity at constant pressure [J/K/mol]
323.2 K	439.3
328.2 K	442.9
333.2 K	446.2
338.2 K	449.4
343.2 K	452.7
348.2 K	457
353.2 K	460.1
358.2 K	464.4
363.2 K	468
368.2 K	471.6
373.2 K	475.1
378.2 K	478.9
383.2 K	482.6

Details	Normal melting temperature [°C]
[2]	38.00

CCCCn1cc[n+](C)c1C.F[B-](F)(F)F [1-butyl-2,3-dimethylimidazolium tetrafluoroborate] + O
molar heat capacity at constant pressure [J/K/mol], [3]
Details	x1 = 0.2	x1 = 0.4	x1 = 0.6	x1 = 0.8	x1 = 1
303.2 K	146.9	217.5	284.4	343	–
308.2 K	147.2	218.2	285.6	344.2	–
313.2 K	147.8	219.3	287	346.3	397.3
318.2 K	148.4	220.4	288.6	348.5	398.8
323.2 K	149.1	221.7	290.3	351	400.6
328.2 K	149.8	223.2	292.1	353.2	403.3
333.2 K	150.4	224.1	293.5	355.6	405.4
338.2 K	151.1	225.2	295.7	358.1	407.8
343.2 K	151.7	226.4	297.6	360.8	410.6
348.2 K	152.4	227.7	299.5	363.5	413.5
353.2 K	153.1	229.2	301.7	366.3	416.5
358.2 K	–	–	–	–	420.2
363.2 K	–	–	–	–	423.6
368.2 K	–	–	–	–	427.3
373.2 K	–	–	–	–	430.6
378.2 K	–	–	–	–	434.4
383.2 K	–	–	–	–	436.3

CCCCn1cc[n+](C)c1.[Cl-] [1-butyl-3-methylimidazolium chloride]
[1]
Details	molar heat capacity at constant pressure [J/K/mol]
343.2 K	337.2
348.2 K	340.3
353.2 K	343.3
358.2 K	347.1
363.2 K	350.6
368.2 K	354.3
373.2 K	357.6
378.2 K	361
383.2 K	364.3
388.2 K	367.4
393.2 K	370.7
398.2 K	374
403.2 K	376.8

Details	Normal melting temperature [°C]
[2]	57.00

CCCCn1cc[n+](C)c1C.F[P-](F)(F)(F)(F)F [1-butyl-2,3-dimethylimidazolium hexafluorophosphate] + O
molar heat capacity at constant pressure [J/K/mol], [3]
Details	x1 = 0.8	x1 = 0.85	x1 = 0.9	x1 = 0.95	x1 = 1
303.2 K	387	396.4	407.2	418.3	–
308.2 K	389.2	398.4	409.4	420.5	–
313.2 K	391.2	400.5	411.9	423.3	–
318.2 K	393.4	402.7	414.5	426	–
323.2 K	395.9	405.5	417.7	429.4	439.3
328.2 K	398.9	408.8	421.3	433.2	442.9
333.2 K	401.8	411.9	424.7	436.7	446.2
338.2 K	404.5	414.9	428	440.1	449.4
343.2 K	407.5	417.9	431.2	443.5	452.7
348.2 K	411.1	421.7	435.2	447.6	457
353.2 K	414.1	424.8	438.3	450.9	460.1
358.2 K	–	–	–	–	464.4
363.2 K	–	–	–	–	468
368.2 K	–	–	–	–	471.6
373.2 K	–	–	–	–	475.1
378.2 K	–	–	–	–	478.9
383.2 K	–	–	–	–	482.6

CCCCn1cc[n+](C)c1.[Cl-] [1-butyl-3-methylimidazolium chloride] + O
molar heat capacity at constant pressure [J/K/mol], [3]
Details	x1 = 0.2	x1 = 0.4	x1 = 0.6	x1 = 0.8	x1 = 1
303.2 K	125.6	170.2	218.6	272.6	–
308.2 K	126.7	171.6	220	274.4	–
313.2 K	127.7	173	221.8	276.3	–
318.2 K	128.6	174.5	223.9	279.3	–
323.2 K	129.9	176.2	225.9	280.9	–
328.2 K	130.9	177.6	228	282.9	–
333.2 K	131.8	179	230	285.5	–
338.2 K	133.1	180.5	232	288.2	–
343.2 K	133.8	182.2	234.1	290.5	337.2
348.2 K	135.2	183.6	236.4	293.1	340.3
353.2 K	136	185.9	238.6	296.3	343.3
358.2 K	–	–	–	–	347.1
363.2 K	–	–	–	–	350.6
368.2 K	–	–	–	–	354.3
373.2 K	–	–	–	–	357.6
378.2 K	–	–	–	–	361
383.2 K	–	–	–	–	364.3
388.2 K	–	–	–	–	367.4
393.2 K	–	–	–	–	370.7
398.2 K	–	–	–	–	374
403.2 K	–	–	–	–	376.8

CCCCn1cc[n+](C)c1C.F[B-](F)(F)F [1-butyl-2,3-dimethylimidazolium tetrafluoroborate]
[1]
Details	molar heat capacity at constant pressure [J/K/mol]
313.2 K	397.3
318.2 K	398.8
323.2 K	400.6
328.2 K	403.3
333.2 K	405.4
338.2 K	407.8
343.2 K	410.6
348.2 K	413.5
353.2 K	416.5
358.2 K	420.2
363.2 K	423.6
368.2 K	427.3
373.2 K	430.6
378.2 K	434.4
383.2 K	436.3

Details	Normal melting temperature [°C]
[2]	32.00
